Results on one compound are retold here after ChEMBL document CHEMBL1201862, “PubChem BioAssay data set” (2004).

Some test systems named below: SNB-78; XF498; M19-MEL; KM-20L2; RXF 631; LXFL 529; DMS-273; DMS-114; HOP-18.
Assay in all cases: inhibition of tumour cell growth, NCI panel, 48 h

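A five-concentration, 48-hour dose response in 96-well plates underlies each endpoint, interpolated linearly between surrounding concentrations. Abbreviation: GI50, concentration required for 50% inhibition of growth.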 The source made the active and inactive calls. Cut-off read from the data, not from the text of the source: active = GI50 up to about 1.1 µM and inactive = higher. Where only a bound is given, the exact number is not on record here.

For `CC(=O)O[C@H]1C(=O)[C@@]2(C)C(C(OC(=O)c3ccccc3)[C@]3(O)C[C@H](OC(=O)C(OC(=O)CCCC(=O)NCCCN(C)C)C(NC(=O)c4ccccc4)c4ccccc4)C(C)=C1C3(C)C)C1(OC(C)=O)COC1C[C@@H]2O` (some centres undefined), the GI50 was 2490 nM (inactive) with SNB-78; < 10 nM (active) in the experiment on XF498; < 10 nM (active) with M19-MEL; < 10 nM (active) in the experiment on KM-20L2; 35.5 nM (active) in the experiment on RXF 631; < 10 nM (active) in the experiment with LXFL 529. The GI50 was < 10 nM (active) with DMS-273, < 10 nM (active) in the experiment on DMS-114 and 916 nM (active) with HOP-18.
